Consider two compounds from paper PMC6992361 (Molecular cancer therapeutics, 2019).

Experiment [1] concerns monolayer of endothelial cells. The experiment in a line: Transendothelial electrical impedance assay. Format: cell-based. To be noted: S1P at 10 nM.
The subject of experiment [2] is 786-O RCC tumor xenograft. Format: in vivo. Particulars: 786-O xenograft; sunitinib 50 mg/kg, Ex82 30mg/kg daily by gavage.
In experiment [3] the test system is 786-O RCC tumor xenograft. Briefly: Multiplexed immunohistochemistry analysis of tumors. Format: in vivo, mouse. Particulars: 786-O xenograft tumors.
The test system of experiment [4] is 786-O RCC tumor xenograft. The experiment in a line: Arterial spin labeled MRI of tumor blood flow. Format: in vivo, mouse. Particulars: day 26 +/- 4 days.

Regarding `CCCCCCCCCCCCC/C=C/[C@@H](O)[C@@H](N)COP(=O)(O)O` [S1P, sphingosine-1-phosphate], the “electrical impedance of endothelial monolayer” value in experiment [1] is “strongly increases electrical impedance”.
On to `CCN(CC)CCNC(=O)c1c(C)[nH]c(/C=C2\C(=O)Nc3ccc(F)cc32)c1C` [sunitinib], for which the tumor growth result in experiment [2] was “slowed tumor growth”. Besides, in experiment [3], the “S1P1 expression in tumors” value is on record as “significantly reduced”, the “percent area of TUNEL” value is given as 10.9% and the “percent area of tumor vessels (CD34)” value was determined as 7.2%. Besides, the “tumor blood flow (ASL MRI)” value in experiment [4] is “lower tumor blood flow than vehicle”.
